Experiments:
[1] = system: ovalbumin-induced airway eosinophilia and neutrophilia in mice; assay: Ovalbumin-induced airway eosinophil and neutrophil accumulation in mice; format: in vivo, mouse; conditions: OVA-sensitized mice, i-t; for Cell numbers in BALF, Eosinophils / Cell numbers in BALF, Neutrophils: mean ± SEM
Experimental: BALB/c mice (6-8 weeks old) were immunized with OVA (10 μg/mouse i.p.) on days 0 and 7. In order to elicit a local inflammatory response in the lung, mice were repeatedly challenged between days 13-15 with a nebulised solution of ovalbumin (10 mg/mL, 30 min exposure, De Vilibiss Ultraneb 2000). On day 17 each animal received via intra-tracheal administration of either vehicle or test compound 2 hr prior to the final OVA challenge. Animals were anaesthetized 8 hr later before undergoing a tracheotomy. BAL was obtained by instilling PBS (1 mL) into the lungs, which was then withdrawn. This procedure was repeated to provide approximately 2 mL of lavage fluid. Total cell numbers in the BALF samples were measured using a haemocytometer. Cytospin smears of the BALF samples were prepared by centrifugation at 200 rpm for 5 min at RT and stained using a DiffQuik stain system (Dade Behring) for differential cell counts. Cells were counted using oil immersion microscopy. Data is expressed as differential number of cells per mL of […] (mean±S.E.M).

[2] = system: LPS-induced airway neutrophilia in mice; assay: LPS-induced airway neutrophil accumulation in mice; format: in vivo, mouse; conditions: i-t; for Neutrophil numbers in BALF: mean ± SEM
Experimental: Non-fasted BALB/c mice (6-8 weeks old) were dosed with vehicle or with test compound by intra-tracheal administration (dose volume 20 μL) at time points T=−2 hr, −8 hr, or −12 hr with respect to the start of LPS treatment. The LPS was prepared in a solution of 0.5 mg/mL and aerosolised using a De Vibliss ultrasonic nebuliser 2000 (7 mL during 30 min exposure). At eight hr after LPS challenge, the trachea was cannulated and bronchoalveolar lavage fluid (BALF) extracted by infusing and then withdrawing PBS (1 mL) into the lungs via the tracheal catheter. This procedure was repeated to give a yield of approximately 2 mL lavage fluid. Total cell numbers in the BALF samples were measured using a haemocytometer. Cytospin smears of the BALF samples were prepared by centrifugation at 1200 rpm for 2 min at RT and stained using a DiffQuik stain system (Dade Behring) for differential cell counts. Cells were counted using oil immersion microscopy. Data are expressed as neutrophil number of cells per mL of BALF (mean±S.E.M).

[3] = system: poly-I:C-induced cell accumulation in mice airways; assay: Poly-I:C-induced cell accumulation in mice; format: in vivo, mouse; conditions: for % inhibition, Macrophages in BALF / % inhibition, Neutrophils in BALF / Cell numbers in BALF, Macrophages / Cell numbers in BALF, Neutrophils: mice, poly I:C, intra-nasal; for Cell numbers in BALF, Macrophages / Cell numbers in BALF, Neutrophils: mean ± SEM
Experimental: Specific pathogen-free A/J mice (males, 5 weeks old) were dosed with poly (I:C)-LMW (1 mg/mL, 40 μL) (InvivoGen, San Diego, Calif., USA) intranasally twice daily for 3 days under anaesthasia (3% isoflurane). Test substances were dosed intra-nasally (50 μL in 10% DMSO/isotonic saline vehicle) 2 hr before each poly-I:C treatment. At 24 hr after the last poly-I:C challenge, animals were anesthetized, the trachea was cannulated and bronchial alveolar lavage (BAL) was obtained by instilling into and then withdrawing from the lungs, isotonic saline (100 mL/kg). Total cell numbers in the BALF samples were measured using a haemocytometer under a phase-contrast microscope.
The proportions of alveolar macrophages and neutrophils were determined by FACS analysis using anti-mouse MOMA2-FITC (macrophage) or anti-mouse 7/4-FITC (neutrophil). Cells were suspended in PBS and incubated with anti-MOMA2-FITC (2 μg/mL, Catalogue no SM065F, Acris Antibodies GmbH, Herford, Germany) or anti-7/4-FITC (2 μg/mL, Catalogue no CL050F, Acris Antibodies GmbH, Herford, Germany) for 30 min at 30° C., and then counterstained with propidium iodide (2 μg/mL) to allow exclusion of necrotic cells. The cells were washed with PBS, and transferred to FACS tubes. Samples was set in a flow cytometer (ALTRA II; Beckman Coulter Japan, Tokyo, Japan), and a single-parameter FL2 [PMT2] (FITC) histogram with log x-axis was plotted to illustrate relative intensity of FITC, Data files were stored for subsequent analysis using Kaluza analysis software (ver. 1.2) to calculate the proportion of each cell type.

d-U937 cells = assay: MTT assay, cell viability; format: cell-based, human
Experimental: PMA-differentiated U937 cells were pre-incubated with test compound (10 μg/mL) or vehicle for 4 hr in 5% FCS or 10% FCS for 24 hr. The supernatant was replaced with new media (200 μL) and MTT stock solution (10 μL, 5 mg/mL) was added to each well. After 1 hr incubation, the media were removed, 200 μL of DMSO was added to each well and the plates were shaken lightly for 1 hr prior to reading the absorbance at 550 nm. The percentage loss of cell viability was calculated for each well relative to vehicle (0.5% DMSO)-treatment.

## COCCOCCOCC#Cc1cccc2nc(Cn3nc(-c4cc(O)cc(F)c4)c4c(N)ncnc43)n(Cc3ccccc3C(F)(F)F)c(=O)c12 [Compound (I), 2-((4-Amino-3-(3-fluoro-5-hydroxyphenyl)-1H-pyrazolo[3,4-d]pyrimidin-1-yl)methyl)-5-(3-(2-(2-methoxyethoxy)ethoxy)prop-1-yn-1-yl)-3-(2-(trifluoromethyl)benzyl)quinazolin-4(3H)-one]
[1]; 0.05 mg/mL
  % inhibition, Eosinophils in BALF: 20%
  % inhibition, Neutrophils in BALF: 18%
  Cell numbers in BALF, Eosinophils: 19.7 ± 3.2 x10^4/mL
  Cell numbers in BALF, Neutrophils: 8.0 ± 0.4 x10^4/mL
[1]; 0.2 mg/mL
  % inhibition, Eosinophils in BALF: 85%
  % inhibition, Neutrophils in BALF: 70%
  Cell numbers in BALF, Eosinophils: 3.8 ± 0.9 x10^4/mL
  Cell numbers in BALF, Neutrophils: 2.9 ± 0.5 x10^4/mL
[1]; 1 mg/mL
  % inhibition, Eosinophils in BALF: 91%
  % inhibition, Neutrophils in BALF: 80%
  Cell numbers in BALF, Eosinophils: 2.1 ± 0.4 x10^4/mL
  Cell numbers in BALF, Neutrophils: 2.0 ± 0.3 x10^4/mL
[2]; 0.05 mg/mL, pre-dose 2 hr
  % inhibition of neutrophil numbers in BALF: 19%
  Neutrophil numbers in BALF: 13.8 ± 2.5 x10^5/mL
[2]; 0.2 mg/mL, pre-dose 2 hr
  % inhibition of neutrophil numbers in BALF: 53%
  Neutrophil numbers in BALF: 8.0 ± 1.4 x10^5/mL
[2]; 0.2 mg/mL, pre-dose 8 hr
  % inhibition of neutrophil numbers in BALF: 45%
  Neutrophil numbers in BALF: 9.4 ± 2.0 x10^5/mL
[2]; 0.2 mg/mL, pre-dose 12 h
  % inhibition of neutrophil numbers in BALF: 23%
  Neutrophil numbers in BALF: 13.1 ± 2.5 x10^5/mL
[2]; 1.0 mg/mL, pre-dose 2 hr
  % inhibition of neutrophil numbers in BALF: 68%
  Neutrophil numbers in BALF: 5.5 ± 0.9 x10^5/mL
[3]; direct comparison
  potency versus compound A on poly-I:C-induced cell accumulation (in words): significantly greater potency than compound A
[3]; 0.002 mg/mL
  % inhibition, Macrophages in BALF: 49%
  % inhibition, Neutrophils in BALF: 43%
  Cell numbers in BALF, Macrophages: 11.5 ± 0.2 x10^4/mL
  Cell numbers in BALF, Neutrophils: 7.3 ± 0.3 x10^4/mL
[3]; 0.02 mg/mL
  % inhibition, Macrophages in BALF: 69%
  % inhibition, Neutrophils in BALF: 65%
  Cell numbers in BALF, Macrophages: 8.3 ± 0.3 x10^4/mL
  Cell numbers in BALF, Neutrophils: 5.0 ± 0.2 x10^4/mL
[3]; 0.2 mg/mL
  % inhibition, Macrophages in BALF: 79%
  % inhibition, Neutrophils in BALF: 77%
  Cell numbers in BALF, Macrophages: 6.8 ± 0.3 x10^4/mL
  Cell numbers in BALF, Neutrophils: 3.8 ± 0.2 x10^4/mL
d-U937 cells
  effects on cell viability (in words): No effects
d-U937 cells; 10 μg/mL, 4 hr
  Cell Viability MTT Assay in d-U937 cells at 4 hr: −ve (−ve indicates a value of <30% inhibition at 10 μg/mL)
d-U937 cells; 10 μg/mL, 24 hr
  Cell Viability MTT Assay in d-U937 cells at 24 hr: −ve (−ve indicates a value of <30% inhibition at 10 μg/mL)
